Tested on: bronchoconstricting effects of a standard dose of acetylcholine
Test: bronchodilation upon aerosol inhalation (inhibition of acetylcholine bronchoconstriction), method of Rosenthale et al.
Format: in vivo
Settings: guinea pig, i.v. acetylcholine dose producing ca. 30% bronchoconstriction
Excerpt: In using the compounds of the invention to produce bronchodilating effects in warm-blooded animals, they may be administered in a variety of dosage forms: oral, injectable, and aerosol inhalation. Aerosol inhalation is a preferred method because of its rapid onset of action, great potency, and specificity of action. The particular dosage to obtain the bronchodilating effect will vary with the particular compound employed, the particular animal involved, and the degree of bronchodilation desired. In the guinea pig, by aerosol inhalation, the dose to produce bronchodilation is from about 0.15 micrograms to about 25 micrograms, and preferably from about 0.15 to about 15 micrograms. The bronchodilation produced upon aerosol inhalation can be observed by the method of Rosenthale et al., J. Pharmacol. Exp. Ther., 178, 541 (1971). Using this procedure the following results were obtained:
*The dose (i.v.) of acetylcholine which produces a ca. 30%

Row | SMILES | Percent Inhibition of the Bronchoconstricting effects of a standard dose of acetylcholine (dose 1.5 μg) [%] | Percent Inhibition of the Bronchoconstricting effects of a standard dose of acetylcholine (dose 15 μg) [%] | Percent Inhibition of the Bronchoconstricting effects of a standard dose of acetylcholine (dose .015 μg) [%] | Percent Inhibition of the Bronchoconstricting effects of a standard dose of acetylcholine (dose .15 μg) [%] | Percent Inhibition of the Bronchoconstricting effects of a standard dose of acetylcholine (dose .0015 μg) [%]
1 | C#CC(O)(CCCCC)CC[C@H]1[C@H](O)CC(=O)[C@@H]1C/C=C\CCCC(=O)O (stereo partly shown) [13,14-dihydro-15-ethynyl-PGE2, 13,14-Dihydro-15-Ethynyl-PGE2] | 100 | 91 | 94 | 96 | 
2 | C#CC(O)(CCCCC)CC[C@@H]1[C@@H](C/C=C\CCCC(=O)O)[C@H](O)C[C@H]1O (stereo partly drawn) [13,14-dihydro-15-ethynyl-PGF2β, 13,14-Dihydro-15-Ethynyl PGF2β] | 44 | 63 |  |  | 
3 | C#CC(O)(CCCCC)CC[C@H]1[C@H](O)CC(=O)[C@@H]1CCCCCCC(=O)O (stereo partly shown) [tetrahydro-15-ethynyl-PGE2, 15-Ethynyl-Tetrahydro-PGE2] | 100 |  | 86 | 99 | 51
4 | C#C[C@](O)(CCCCC)CC[C@H]1[C@H](O)CC(=O)[C@@H]1CCCCCCC(=O)O [tetrahydro-15β-ethynyl-PGE2, 15β-ethynyl-tetrahydro-PGE2] |  |  | 95 | 98 | 58
